According to PubChem BioAssay AID248 (DTP/NCI, 2004):
Values joined by “and” are separate entries in the source; they are usually repeats but may differ in a detail not shown here. Equal values may be shown once. Toxic doses and inconclusive results are not listed. No stated cut-off is given here; in the data, active means T/C of 150% or more; inactive means T/C below 125%.

Test system: L1210 leukemia ip in BDF1 mice, survival T/C
Test: NCI In Vivo Anticancer Drug Screen. Data for tumor model L1210 Leukemia (intraperitoneal) in B6D2F1 (BDF1) mice
Conditions: endpoint: mean survival time, higher = longer survival
Summary of the method: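 Value reflects the ratio of survival in compound-treated mice to survival in vehicle-treated controls, with both groups carrying the same transplanted tumor.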

[1] = dose: 100.0 mg/kg/injection, schedule: Q04DX003 (ip), vehicle: saline with Tween-80
[2] = dose: 200.0 mg/kg/injection, schedule: Q04DX003 (ip), vehicle: saline with Tween-80
[3] = dose: 400.0 mg/kg/injection, schedule: Q04DX003 (ip), vehicle: saline with Tween-80
[4] = dose: 100.0 mg/kg/injection, schedule: Q01DX009 (ip), vehicle: Klucel (hydroxypropylcellulose) (HPC)
[5] = dose: 100.0 mg/kg/injection, schedule: Q01DX009 (ip), vehicle: saline with Tween-80
[6] = dose: 100.0 mg/kg/injection, schedule: Q04DX003 (ip), vehicle: Klucel (hydroxypropylcellulose) (HPC)
[7] = dose: 200.0 mg/kg/injection, schedule: Q01DX009 (ip), vehicle: Klucel (hydroxypropylcellulose) (HPC)
[8] = dose: 200.0 mg/kg/injection, schedule: Q01DX009 (ip), vehicle: saline with Tween-80
[9] = dose: 200.0 mg/kg/injection, schedule: Q04DX003 (ip), vehicle: Klucel (hydroxypropylcellulose) (HPC)
[10] = dose: 400.0 mg/kg/injection, schedule: Q01DX009 (ip), vehicle: Klucel (hydroxypropylcellulose) (HPC)
[11] = dose: 400.0 mg/kg/injection, schedule: Q01DX009 (ip), vehicle: saline with Tween-80
[12] = dose: 400.0 mg/kg/injection, schedule: Q04DX003 (ip), vehicle: Klucel (hydroxypropylcellulose) (HPC)
[13] = dose: 50.0 mg/kg/injection, schedule: Q01DX001 (ip), vehicle: carboxymethylcellulose (CMC)
[14] = dose: 100.0 mg/kg/injection, schedule: Q01DX001 (ip), vehicle: carboxymethylcellulose (CMC)
[15] = dose: 200.0 mg/kg/injection, schedule: Q01DX001 (ip), vehicle: carboxymethylcellulose (CMC)
[16] = dose: 100.0 mg/kg/injection, schedule: Q04DX002 (ip), vehicle: Klucel (hydroxypropylcellulose) (HPC)
[17] = dose: 25.0 mg/kg/injection, schedule: Q01DX009 (ip), vehicle: saline
[18] = dose: 50.0 mg/kg/injection, schedule: Q01DX009 (ip), vehicle: saline
[19] = dose: 50.0 mg/kg/injection, schedule: Q01DX001 (ip), vehicle: saline
[20] = dose: 200.0 mg/kg/injection, schedule: Q04DX002 (ip), vehicle: Klucel (hydroxypropylcellulose) (HPC)

Measured: T/C

CC1c2[nH]c3ccccc3c2CC1C(=O)O (stereo not drawn)
inactive: dose: 100.0 mg/kg/injection, schedule: Q04DX002 (ip), vehicle: saline with Tween-80 97 % of control | dose: 200.0 mg/kg/injection, schedule: Q04DX002 (ip), vehicle: saline with Tween-80 91 % of control | dose: 400.0 mg/kg/injection, schedule: Q04DX002 (ip), vehicle: saline with Tween-80 100 % of control

O=C(O)CCCc1ccc2c(c1)-c1ccccc1S2=O (stereo not drawn)
inactive: [1] 106 % of control | [2] 109 % of control | [3] 110 % of control

O=C(Nc1ccc(C2=NCCN2)cc1)c1cccc(NC(=S)Nc2ccc(C3=NCCN3)cc2)c1
inactive: dose: 5.0 mg/kg/injection, schedule: Q01DX Z (ip), vehicle: saline 107 % of control and 122 % of control | dose: 20.0 mg/kg/injection, schedule: Q01DX Z (ip), vehicle: saline 102 % of control and 113 % of control | dose: 60.0 mg/kg/injection, schedule: Q01DX Z (oral), vehicle: saline 103 % of control | dose: 120.0 mg/kg/injection, schedule: Q01DX Z (oral), vehicle: saline 111 % of control

O=C(Oc1c(Cl)cc(Cl)cc1Cl)c1ccccc1
inactive: [4] 93 % of control | [5] 90 % of control | [6] 93 % of control | [1] 98 % of control | [7] 96 % of control | [8] 91 % of control | [9] 96 % of control | [2] 98 % of control | [10] 98 % of control | [11] 106 % of control | [12] 98 % of control | [3] 96 % of control

Cc1ccc(S(=O)(=O)OCCN(CCOS(=O)(=O)c2ccc(C)cc2)c2ccc(C=O)cc2)cc1
inactive: [13] 114 % of control | [14] 102 % of control and 120 % of control | dose: 175.0 mg/kg/injection, schedule: Q01DX001 (ip), vehicle: carboxymethylcellulose (CMC) 121 % of control | [15] 98 % of control and 122 % of control | dose: 265.0 mg/kg/injection, schedule: Q01DX001 (ip), vehicle: carboxymethylcellulose (CMC) 116 % of control | dose: 600.0 mg/kg/injection, schedule: Q01DX001 (ip), vehicle: carboxymethylcellulose (CMC) 115 % of control

Cc1cc2cc3cccnn3c2nn1
inactive: dose: 25.0 mg/kg/injection, schedule: Q04DX002 (ip), vehicle: saline 106 % of control | dose: 50.0 mg/kg/injection, schedule: Q04DX002 (ip), vehicle: saline 98 % of control | [16] 118 % of control | dose: 100.0 mg/kg/injection, schedule: Q04DX002 (ip), vehicle: saline 106 % of control

NC(CSC(c1ccccc1)(c1ccccc1)c1ccc(-c2ccccc2)cc1)C(=O)O (stereo not drawn)
inactive: dose: 12.5 mg/kg/injection, schedule: Q01DX009 (ip), vehicle: saline 103 % of control | [17] 104 % of control | [18] 107 % of control

C[N+](C)(C)Cc1cccc([N+](=O)[O-])c1
inactive: dose: 12.0 mg/kg/injection, schedule: Q01DX009 (ip), vehicle: saline 90 % of control | [17] 92 % of control | [19] 98 % of control | [18] 93 % of control

C1CCC(C2CCCC(C3CCCCC3)C2)CC1 (stereo not drawn)
inactive: [14] 94 % of control | [15] 96 % of control | dose: 400.0 mg/kg/injection, schedule: Q01DX001 (ip), vehicle: carboxymethylcellulose (CMC) 94 % of control

O=C(O)c1cocc1C(=O)O
inactive: [16] 91 % of control | [20] 91 % of control

COc1ccc2c(c1O)-c1cc(O)cc3c1C(C2)NCC3 (stereo not drawn)
inactive: dose: 0.63 mg/kg/injection, schedule: Q04DX003 (ip), vehicle: DMSO 105 % of control | dose: 1.25 mg/kg/injection, schedule: Q04DX003 (ip), vehicle: DMSO 96 % of control | dose: 2.5 mg/kg/injection, schedule: Q04DX003 (ip), vehicle: DMSO 93 % of control

CC(=O)Oc1ccc([N+](=O)[O-])cc1
inactive: dose: 25.0 mg/kg/injection, schedule: Q04DX002 (ip), vehicle: Klucel (hydroxypropylcellulose) (HPC) 102 % of control | dose: 50.0 mg/kg/injection, schedule: Q04DX002 (ip), vehicle: Klucel (hydroxypropylcellulose) (HPC) 89 % of control | [16] 90 % of control | [20] 92 % of control and 96 % of control

CCCC(C(O)c1ccc(OC)cc1)C(O)(C(F)(F)F)C(F)(F)F (stereo not drawn)
inactive: dose: 100.0 mg/kg/injection, schedule: Q04DX003 (ip), vehicle: other 97 % of control | dose: 200.0 mg/kg/injection, schedule: Q04DX003 (ip), vehicle: other 92 % of control | dose: 400.0 mg/kg/injection, schedule: Q04DX003 (ip), vehicle: other 92 % of control

O=C(CC(O)(C(F)(F)F)C(F)(F)F)c1c2ccccc2cc2ccccc12
inactive: [5] 98 % of control | [8] 109 % of control | [11] 98 % of control

O=C1CCCC(=S)N1
inactive: [13] 113 % of control | [14] 106 % of control

NS(=O)(=O)c1ccc(NC(=O)Nc2cccc(Cl)c2Cl)cc1
inactive: [4] 101 % of control | [7] 101 % of control | [10] 95 % of control

Cc1cc(C)c(C(=O)O)c(C)c1.[Hg]
inactive: dose: 3.0 mg/kg/injection, schedule: Q04DX003 (ip), vehicle: Klucel (hydroxypropylcellulose) (HPC) 96 % of control | dose: 6.0 mg/kg/injection, schedule: Q04DX003 (ip), vehicle: Klucel (hydroxypropylcellulose) (HPC) 91 % of control | dose: 12.0 mg/kg/injection, schedule: Q04DX003 (ip), vehicle: Klucel (hydroxypropylcellulose) (HPC) 86 % of control | dose: 12.5 mg/kg/injection, schedule: Q04DX003 (ip), vehicle: Klucel (hydroxypropylcellulose) (HPC) 88 % of control

COc1ccc(C2=CC(=O)C(c3ccc(OC)cc3)=CC2=O)cc1
inactive: dose: 20.0 mg/kg/injection, schedule: Q01DX009 (ip), vehicle: gum acacia 88 % of control | dose: 20.0 mg/kg/injection, schedule: Q04DX003 (ip), vehicle: gum acacia 86 % of control | dose: 40.0 mg/kg/injection, schedule: Q04DX003 (ip), vehicle: gum acacia 92 % of control | dose: 80.0 mg/kg/injection, schedule: Q01DX009 (ip), vehicle: gum acacia 97 % of control | dose: 80.0 mg/kg/injection, schedule: Q04DX003 (ip), vehicle: gum acacia 91 % of control

C[n+]1c(/C=C/c2ccc3cccc(O)c3n2)ccc2cccc(O)c21
inactive: dose: 12.5 mg/kg/injection, schedule: Q01DX001 (ip), vehicle: saline 100 % of control | dose: 12.5 mg/kg/injection, schedule: Q01DX009 (ip), vehicle: saline with Tween-80 106 % of control | dose: 12.5 mg/kg/injection, schedule: Q04DX003 (ip), vehicle: saline 96 % of control | dose: 25.0 mg/kg/injection, schedule: Q01DX001 (ip), vehicle: saline 107 % of control | dose: 25.0 mg/kg/injection, schedule: Q01DX009 (ip), vehicle: saline with Tween-80 95 % of control | dose: 25.0 mg/kg/injection, schedule: Q04DX003 (ip), vehicle: saline 97 % of control | [19] 102 % of control | dose: 50.0 mg/kg/injection, schedule: Q04DX003 (ip), vehicle: saline 96 % of control

O=C(O)c1nccc2c([N+](=O)[O-])cccc12
inactive: dose: 100.0 mg/kg/injection, schedule: Q04DX003 (ip), vehicle: saline 97 % of control | dose: 200.0 mg/kg/injection, schedule: Q04DX003 (ip), vehicle: saline 97 % of control | dose: 400.0 mg/kg/injection, schedule: Q04DX003 (ip), vehicle: saline 92 % of control

O=C(CN1C(=O)c2ccccc2C1=O)OC(c1ccccc1)c1ccccc1
inactive: [4] 102 % of control | [6] 98 % of control | [7] 104 % of control | [9] 96 % of control | [10] 104 % of control | [12] 96 % of control

Cc1ccc(Oc2cccc(C(=O)O)c2)cc1
inactive: [6] 107 % of control | [9] 96 % of control | [12] 118 % of control

CCN(C(=S)Nc1cccc(OC)c1)c1ccccc1
inactive: [4] 90 % of control | [7] 94 % of control
